# Data from patent US20240409549A1, “NEW CRYSTAL FORM AND USE OF NITROGENOUS TRICYCLIC COMPOUND” (SUNSHINE LAKE PHARMA CO., LTD., priority 2021, published 2024).
# Legend:
# [1] = Pharmacokinetic experiment, oral capsules in Beagle dogs; assay type: in vivo; details: male Beagle dogs, 5 mg/kg
# Description: The crystal form of the compound having Formula (I) was filled into capsules, which were used for oral administration.
# Three male Beagle dogs weighing 8-12 kg were orally administered with capsules containing the test sample at a dose of 5 mg/kg, and blood samples were taken at time points of 0.25 h, 0.5 h, 1.0 h, 2.0 h, 4.0 h, 6.0 h, 8.0 h and 24 h. Standard curve was plotted based on concentrations of the samples in a suitable range, the concentration of the test sample in the plasma sample was measured and quantified by AB SCIEX API4000 LC-MS/MS at MRM mode. Pharmacokinetic parameters were calculated according to drug concentration -time curve using a noncompartmental method by WinNonLin 6.3 software.
# [2] = Stability experiment: high-temperature test; assay type: physicochemical; details: for Purity (%): HPLC
# Description: (§1) (1) High-temperature test: A batch of the test sample was taken into a flat weighing bottle, divided into ≤5 mm thick thin layer. The sample was placed at 60° C. for 30 days. The sample was then sampled at day 5, day 13 and day 30, and the change of the sample's color was observed. The purity of the sample was detected by HPLC.
# [3] = Stability experiment: high-humidity test; assay type: physicochemical; details: for Purity (%): HPLC; for Purity (%) / Appearance: High-humidity 25° C., RH 90%±5%
# Description: (2) High-humidity test: take a batch of the test sample into the flat weighing bottle, divided into ≤5 mm thick thin layer. The samples were sampled at 25° C. and RH for 90%±5% for 30 days. The samples were sampled at day 5, 13 and day 30, and the sample color was observed. The purity of the sample was determined by HPLC.
# [4] = Stability experiment: photostability (lighting) test; assay type: physicochemical; details: for Purity (%): HPLC; for Purity (%) / Appearance: Lighting, open light box with UV
# Source text: as §1, with “(3) Photostability Test:” for “(1) High-temperature test:”, “placed in an opened light box (with UV)” for “placed”, “the illuminance […], UV light≥0.7 w/m^2” for “60° C.”
# [5] = Hygroscopicity experiment (dynamic vapor sorption); assay type: physicochemical
# Description: The hygroscopicity of the present invention is measured using the DVS INT-Std dynamic moisture and gas adsorption analyzer of the Surface Measurement Systems Company in UK. The humidity test range was 0%-95%, the air flow was 200 mL/min, the temperature was 25° C., test point: take one test point per […] 5% humidity.
# An appropriate amount of the test sample was taken and the hygroscopicity of the test sample was tested by dynamic moisture adsorption device. The description of the hygroscopic characteristics and the definition of the hygroscopic weight gain (Appendix 9103 of Chinese Pharmacopoeia 2020 Edition, Guidelines for Drug Hygroscopicity Tests, experimental conditions: 25° C.±1° C., 80%±2% relative humidity) are described in the table below: […]
# [6] = High-temperature 60° C., day 13
# [7] = High-temperature 60° C., day 30
# [8] = day 0 (start, common to all conditions)
compound,measurement,setting,value
"O=C(O)c1ccc2c(c1)Oc1ccc(OCc3c(-c4c(Cl)cccc4Cl)noc3C3CC3)nc1C1(CC1)C2 [Crystal form I, 2-((5-cyclopropyl-3-(2,6-dichlorophenyl)isoxazol-4-yl)methoxy)-10H-spiro[benzo[6,7]oxepino[3,2-b]pyridine-11,1′-cyclopropane]-7-carboxylic acid]",AUC(0-t),"[1]; dog, plasma",1020 ng·h/mL
same,Cmax,"[1]; dog, plasma",389 ng/mL
same,Tmax,[1],1.67 h
same,Purity (%),"[2]; High-temperature 60° C., day 5",99.83%
same,Purity (%),[2]; [6],99.91%
same,Purity (%),[2]; [7],99.70%
same,Purity (%),[2]; [8],99.88%
same,Appearance,"[2]; High-temperature 60° C., day 5",White
same,Appearance,[2]; [6],White
same,Appearance,[2]; [7],White
same,Appearance,[2]; [8],White
same,crystal structure stability,[2]; high temperature conditions,remains basically unchanged
same,Purity (%),[3]; day 5,99.81%
same,Purity (%),[3]; day 13,99.70%
same,Purity (%),[3]; day 30,99.82%
same,Appearance,[3]; day 5,White
same,Appearance,[3]; day 13,White
same,Appearance,[3]; day 30,White
same,crystal structure stability,[3]; high humidity conditions,remains basically unchanged
same,Purity (%),[4]; day 5,99.88%
same,Purity (%),[4]; day 13,99.59%
same,Purity (%),[4]; day 30,99.83%
same,Appearance,[4]; day 5,White
same,Appearance,[4]; day 13,White
same,Appearance,[4]; day 30,White
same,crystal structure stability,[4]; lighting conditions,remains basically unchanged
same,hygroscopic weight gain,"[5]; after equilibrium at relative humidity of 80%, 25° C.",less than 0.2%
same,hygroscopic characteristics,"[5]; relative humidity of 80%, criterion of Chinese Pharmacopoeia 2020 Appendix 9103",no or almost no hygroscopicity
